Assay results from US10875875B2, “Propionic acid derivatives and methods of use thereof” (Aviara Pharmaceuticals, Inc., priority 2017, dated 2020).

biological target: T1, α4β7 (Homo sapiens, UniProt P13612+P26010); test: α4β7 integrin inhibition, IC50; assay type: binding; settings: not given
T1 sequence (P13612 34-1032): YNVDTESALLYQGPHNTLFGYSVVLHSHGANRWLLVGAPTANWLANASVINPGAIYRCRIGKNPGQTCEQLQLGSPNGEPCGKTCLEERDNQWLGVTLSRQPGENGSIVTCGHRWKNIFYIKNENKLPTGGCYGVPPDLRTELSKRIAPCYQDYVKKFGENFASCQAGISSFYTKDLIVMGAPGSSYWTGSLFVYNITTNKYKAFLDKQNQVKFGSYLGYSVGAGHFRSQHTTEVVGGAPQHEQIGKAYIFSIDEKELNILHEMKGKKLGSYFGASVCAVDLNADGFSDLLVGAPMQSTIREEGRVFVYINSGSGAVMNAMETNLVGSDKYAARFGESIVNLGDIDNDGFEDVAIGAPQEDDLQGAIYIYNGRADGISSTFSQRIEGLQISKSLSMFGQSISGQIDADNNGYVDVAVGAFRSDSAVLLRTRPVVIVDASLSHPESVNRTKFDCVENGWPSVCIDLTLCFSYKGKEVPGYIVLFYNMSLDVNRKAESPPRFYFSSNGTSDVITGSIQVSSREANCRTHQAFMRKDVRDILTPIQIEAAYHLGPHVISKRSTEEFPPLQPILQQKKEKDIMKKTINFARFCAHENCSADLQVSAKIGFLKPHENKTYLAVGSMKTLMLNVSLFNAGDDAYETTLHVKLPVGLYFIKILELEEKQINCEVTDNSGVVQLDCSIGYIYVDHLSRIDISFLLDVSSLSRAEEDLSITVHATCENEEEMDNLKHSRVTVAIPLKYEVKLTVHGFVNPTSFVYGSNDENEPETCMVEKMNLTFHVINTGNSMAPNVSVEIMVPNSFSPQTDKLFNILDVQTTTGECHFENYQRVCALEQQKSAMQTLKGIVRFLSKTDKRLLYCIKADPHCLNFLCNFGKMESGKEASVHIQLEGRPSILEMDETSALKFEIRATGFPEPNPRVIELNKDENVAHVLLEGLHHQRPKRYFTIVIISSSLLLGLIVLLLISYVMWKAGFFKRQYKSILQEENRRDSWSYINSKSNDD
T1 sequence (P26010 20-798): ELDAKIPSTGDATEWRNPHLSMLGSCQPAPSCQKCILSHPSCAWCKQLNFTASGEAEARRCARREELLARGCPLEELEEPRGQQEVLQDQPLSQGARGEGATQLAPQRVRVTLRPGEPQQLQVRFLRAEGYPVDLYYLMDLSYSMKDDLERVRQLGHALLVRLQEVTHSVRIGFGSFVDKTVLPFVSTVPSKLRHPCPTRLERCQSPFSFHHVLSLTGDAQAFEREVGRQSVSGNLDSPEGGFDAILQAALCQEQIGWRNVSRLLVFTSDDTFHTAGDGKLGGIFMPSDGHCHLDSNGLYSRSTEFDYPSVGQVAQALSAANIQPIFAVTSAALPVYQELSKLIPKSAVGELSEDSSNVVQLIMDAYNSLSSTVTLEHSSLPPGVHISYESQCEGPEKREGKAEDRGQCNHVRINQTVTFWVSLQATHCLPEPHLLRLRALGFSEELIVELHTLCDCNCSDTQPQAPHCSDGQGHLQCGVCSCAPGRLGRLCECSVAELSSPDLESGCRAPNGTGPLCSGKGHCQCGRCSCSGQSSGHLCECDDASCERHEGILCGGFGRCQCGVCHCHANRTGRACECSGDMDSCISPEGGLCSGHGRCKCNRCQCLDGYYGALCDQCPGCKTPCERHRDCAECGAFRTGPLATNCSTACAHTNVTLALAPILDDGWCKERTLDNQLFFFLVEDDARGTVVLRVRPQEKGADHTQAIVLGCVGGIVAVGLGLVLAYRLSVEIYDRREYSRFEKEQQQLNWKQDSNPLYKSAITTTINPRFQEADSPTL

IC50 [µM]	Structure (SMILES)
< 0.02	Cc1cccc(C)c1-c1cccc([C@H](CC(=O)O)NC(=O)Nc2c(O)cc3n(c2=O)CCC3)c1 [1-583, sodium (S)-3-(2′,6′-dimethylbiphenyl-3-yl)-3-(3-(7-oxido-5-oxo-1,2,3,5-tetrahydroindolizin-6-yl)ureido)propanoate]
> 0.2	O=C(O)C[C@H](NC(=O)Nc1c(O)cc2n(c1=O)CCC2)c1cccc(-c2ccc(F)cc2F)c1 [1-629, sodium (S)-3-(2′,4′-difluorobiphenyl-3-yl)-3-(3-(7-oxido-5-oxo-1,2,3,5-tetrahydroindolizin-6-yl)ureido)propanoate]
< 0.02	Cc1cccc(C)c1-c1cc(F)cc([C@H](CC(=O)O)NC(=O)Nc2c(O)cc(C)n(C)c2=O)c1 [1-642, sodium (S)-3-(3-(1,6-dimethyl-4-oxido-2-oxo-1,2-dihydropyridin-3-yl)ureido)-3-(5-fluoro-2′,6′-dimethylbiphenyl-3-yl)propanoate]
< 0.2	Cc1cccc(C)c1-c1cccc([C@H](CC(=O)O)NC(=O)Nc2c(O)cc(C)n(C)c2=O)c1 [1-550, sodium (S)-3-(3-(1,6-dimethyl-4-oxido-2-oxo-1,2-dihydropyridin-3-yl)ureido)-3-(2′,6′-dimethylbiphenyl-3-yl)propanoate]

biological target: α4β1 (Homo sapiens, UniProt P05556+P13612); test: α4β1 integrin inhibition, IC50; assay type: binding; settings: integrin not named at the place; read-out: IC50
Sequence (P05556 21-798, one chain of several): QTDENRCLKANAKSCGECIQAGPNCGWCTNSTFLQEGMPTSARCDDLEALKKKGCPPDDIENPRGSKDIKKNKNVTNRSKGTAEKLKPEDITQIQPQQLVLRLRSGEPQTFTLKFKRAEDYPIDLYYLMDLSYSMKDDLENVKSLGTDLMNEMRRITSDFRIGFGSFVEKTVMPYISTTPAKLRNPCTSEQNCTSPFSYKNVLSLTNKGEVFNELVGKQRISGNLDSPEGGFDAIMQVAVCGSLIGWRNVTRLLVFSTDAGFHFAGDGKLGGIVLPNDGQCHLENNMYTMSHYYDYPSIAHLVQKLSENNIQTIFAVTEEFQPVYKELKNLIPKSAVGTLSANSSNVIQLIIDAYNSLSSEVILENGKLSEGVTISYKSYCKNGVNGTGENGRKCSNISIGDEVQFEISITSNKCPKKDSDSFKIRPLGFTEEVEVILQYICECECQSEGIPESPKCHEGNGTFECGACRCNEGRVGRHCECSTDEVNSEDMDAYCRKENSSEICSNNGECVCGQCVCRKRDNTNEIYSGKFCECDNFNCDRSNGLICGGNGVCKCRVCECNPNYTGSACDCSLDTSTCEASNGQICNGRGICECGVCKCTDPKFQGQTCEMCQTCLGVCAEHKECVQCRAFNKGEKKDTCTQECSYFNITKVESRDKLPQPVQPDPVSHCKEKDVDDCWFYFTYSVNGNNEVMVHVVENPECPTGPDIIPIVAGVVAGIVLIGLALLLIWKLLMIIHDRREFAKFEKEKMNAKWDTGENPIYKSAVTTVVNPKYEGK

IC50 [µM]	Structure (SMILES)
< 0.02	Cc1cn(C)c(=O)c(NC(=O)N[C@@H](CC(=O)O)c2cccc(-c3ccccc3)c2)c1O [1-437, sodium (S)-3-(biphenyl-3-yl)-3-(3-(1,5-dimethyl-4-oxido-2-oxo-1,2-dihydropyridin-3-yl)ureido)propanoate]

same assay, conditions: read-out: α4β1 IC50

Structure (SMILES)	IC50 [µM]
O=C(O)C[C@H](NC(=O)Nc1c(O)cc2n(c1=O)CCC2)c1cccc(-c2ccc(F)cc2F)c1 [1-629, sodium (S)-3-(2′,4′-difluorobiphenyl-3-yl)-3-(3-(7-oxido-5-oxo-1,2,3,5-tetrahydroindolizin-6-yl)ureido)propanoate]	< 0.02
Cc1cccc(C)c1-c1cc(F)cc([C@H](CC(=O)O)NC(=O)Nc2c(O)cc(C)n(C)c2=O)c1 [1-642, sodium (S)-3-(3-(1,6-dimethyl-4-oxido-2-oxo-1,2-dihydropyridin-3-yl)ureido)-3-(5-fluoro-2′,6′-dimethylbiphenyl-3-yl)propanoate]	< 0.02
Cc1cccc(C)c1-c1cccc([C@H](CC(=O)O)NC(=O)Nc2c(O)cc(C)n(C)c2=O)c1 [1-550, sodium (S)-3-(3-(1,6-dimethyl-4-oxido-2-oxo-1,2-dihydropyridin-3-yl)ureido)-3-(2′,6′-dimethylbiphenyl-3-yl)propanoate]	< 0.02
Cc1cc(O)c(NC(=O)N[C@@H](CC(=O)O)c2cccc(-c3ccccc3)c2F)c(=O)n1C [1-610, sodium (S)-3-(3-(1,6-dimethyl-4-oxido-2-oxo-1,2-dihydropyridin-3-yl)ureido)-3-(2-fluorobiphenyl-3-yl)propanoate]	< 0.02
Cc1cc(-c2c(C)cccc2C)cc([C@H](CC(=O)O)NC(=O)Nc2c(O)cc(C)n(C)c2=O)c1 [1-597, sodium (S)-3-(3-(1,6-dimethyl-4-oxido-2-oxo-1,2-dihydropyridin-3-yl)ureido)-3-(2′,5,6′-trimethylbiphenyl-3-yl)propanoate]	< 0.02
Cc1cn(C)c(=O)c(NC(=O)NC(CC(=O)O)c2cccc(-c3cccc(Cl)c3Cl)c2)c1O (stereo not drawn) [1-485, sodium 3-(2′,3′-dichlorobiphenyl-3-yl)-3-(3-(1,5-dimethyl-4-oxido-2-oxo-1,2-dihydropyridin-3-yl)ureido)propanoate]	< 0.2
Cn1ccc(O)c(NC(=O)N[C@@H](CC(=O)O)c2cccc(-c3cnccn3)c2)c1=O [15-2, sodium (S)-3-(3-(1-methyl-4-oxido-2-oxo-1,2-dihydropyridin-3-yl)ureido)-3-(3-(pyrazin-2-yl)phenyl)propanoate]	< 0.02
Cc1cn(C)c(=O)c(NC(=O)N[C@@H](CC(=O)O)c2ccc(-c3ccccc3)cc2)c1O [1-643, sodium (S)-3-(biphenyl-4-yl)-3-(3-(1,5-dimethyl-4-oxido-2-oxo-1,2-dihydropyridin-3-yl)ureido)propanoate]	< 0.2
Cc1cn(C)c(=O)c(NC(=O)N[C@@H](CC(=O)O)c2cccc(-c3ccc4c(c3)OCO4)c2)c1O [1-517, sodium (S)-3-(3-(benzo[d][1,3]dioxol-5-yl)phenyl)-3-(3-(1,5-dimethyl-4-oxido-2-oxo-1,2-dihydropyridin-3-yl)ureido)propanoate]	< 0.02
Cc1cc(C)cc(-c2cccc([C@H](CC(=O)O)NC(=O)Nc3c(O)c(C)cn(C)c3=O)c2)c1 [1-454, sodium (S)-3-(3-(1,5-dimethyl-4-oxido-2-oxo-1,2-dihydropyridin-3-yl)ureido)-3-(3′,5′-dimethylbiphenyl-3-yl)propanoate]	< 0.2
Cc1cn(C)c(=O)c(NC(=O)N[C@@H](CC(=O)O)c2ccc(F)c(-c3ccccc3)c2)c1O [1-442, sodium (S)-3-(3-(1,5-dimethyl-4-oxido-2-oxo-1,2-dihydropyridin-3-yl)ureido)-3-(6-fluorobiphenyl-3-yl)propanoate]	< 0.02
Cc1cc(-c2cccc([C@H](CC(=O)O)NC(=O)Nc3c(O)c(C)cn(C)c3=O)c2)ccc1F [1-497, sodium (S)-3-(3-(1,5-dimethyl-4-oxido-2-oxo-1,2-dihydropyridin-3-yl)ureido)-3-(4′-fluoro-3′-methylbiphenyl-3-yl)propanoate]	< 0.2
Cc1cn(C)c(=O)c(NC(=O)N[C@@H](CC(=O)O)c2ccc(-c3ccccc3)s2)c1O [1-628, sodium (S)-3-(3-(1,5-dimethyl-4-oxido-2-oxo-1,2-dihydropyridin-3-yl)ureido)-3-(5-phenylthiophen-2-yl)propanoate]	< 0.2

Further lines, results first:

IC50 [µM]	Structure (SMILES)
< 0.02	Cc1cccc(C)c1-c1cccc([C@H](CC(=O)O)NC(=O)Nc2c(O)cc3n(c2=O)CCC3)c1 [1-583, sodium (S)-3-(2′,6′-dimethylbiphenyl-3-yl)-3-(3-(7-oxido-5-oxo-1,2,3,5-tetrahydroindolizin-6-yl)ureido)propanoate]
< 0.2	Cc1cn(C)c(=O)c(NC(=O)NC(CC(=O)O)c2ccc(OCC(F)(F)F)c(-c3ccccc3)c2)c1O (stereo not drawn) [1-491, sodium 3-(3-(1,5-dimethyl-4-oxido-2-oxo-1,2-dihydropyridin-3-yl)ureido)-3-(6-(2,2,2-trifluoroethoxy)biphenyl-3-yl)propanoate]
< 0.02	COc1cccc(-c2cc([C@H](CC(=O)O)NC(=O)Nc3c(O)ccn(C)c3=O)ccc2OC(F)(F)F)c1 [1-634, sodium (S)-3-(3′-methoxy-6-(trifluoromethoxy)biphenyl-3-yl)-3-(3-(1-methyl-4-oxido-2-oxo-1,2-dihydropyridin-3-yl)ureido)propanoate]
< 0.02	Cn1cc(-c2cccc([C@H](CC(=O)O)NC(=O)Nc3c(O)ccn(C)c3=O)c2)cn1 [1-548, sodium (S)-3-(3-(1-methyl-1H-pyrazol-4-yl)phenyl)-3-(3-(1-methyl-4-oxido-2-oxo-1,2-dihydropyridin-3-yl)ureido)propanoate]
< 0.02	Cc1cn(C)c(=O)c(NC(=O)N[C@@H](CC(=O)O)c2cccc(-c3cccc(Cl)c3)c2)c1O [1-499, sodium (S)-3-(3′-chlorobiphenyl-3-yl)-3-(3-(1,5-dimethyl-4-oxido-2-oxo-1,2-dihydropyridin-3-yl)ureido)propanoate]
> 0.2	CCn1cc(C)c(O)c(NC(=O)NC(CC(=O)O)c2cccc(-n3cccc(-c4ccccc4)c3=O)c2)c1=O (stereo not drawn) [1-439, sodium 3-(3-(1-ethyl-5-methyl-4-oxido-2-oxo-1,2-dihydropyridin-3-yl)ureido)-3-(3-(2-oxo-3-phenylpyridin-1(2H)-yl)phenyl)propanoate]
< 0.02	Cc1cc(O)c(NC(=O)N[C@@H](CC(=O)O)c2cc(-c3ccc(F)cc3F)cs2)c(=O)n1C [1-552, sodium (S)-3-(4-(2,4-difluorophenyl)thiophen-2-yl)-3-(3-(1,6-dimethyl-4-oxido-2-oxo-1,2-dihydropyridin-3-yl)ureido)propanoate]
< 0.02	Cc1cn(C)c(=O)c(NC(=O)N[C@@H](CC(=O)O)c2cccc(-c3ccc(F)cc3F)c2)c1O [1-446, sodium (S)-3-(2′,4′-difluorobiphenyl-3-yl)-3-(3-(1,5-dimethyl-4-oxido-2-oxo-1,2-dihydropyridin-3-yl)ureido)propanoate]
< 0.2	Cn1ccc(O)c(NC(=O)N[C@@H](CC(=O)O)c2ccc(-c3cccc(F)c3)s2)c1=O [1-620, sodium (S)-3-(5-(3-fluorophenyl)thiophen-2-yl)-3-(3-(1-methyl-4-oxido-2-oxo-1,2-dihydropyridin-3-yl)ureido)propanoate]
